Reference: patent publication US6262036A, “Method for inhibiting RNA translation using chimeric oligonucleoside compounds” (priority 2000, dated 2001)
[mp] = methylphosphonate linkage

How the values were obtained:
[1] = test system: complementary synthetic RNA target; assay: Binding affinities of chimeric backbone oligomers to RNA (Example 35); parameters: KA (37° C.): unit not given here; details: for Tm: 1:1 molar ratio, 2.4 micromolar total strand, pH 7.2, 100 mM NaCl; for KA (37° C.): two-state model fit
Protocol: The following oligonucleotides were tested for their ability to hybridize to a complementary synthetic RNA target.
The bases shown in parentheses contain the backbone modification indicated in the middle set of brackets for each description, and likewise the terminal portions of the oligomers contain linkage structures as shown in the terminal sets of brackets. The PS/DE notation indicates an alternating array of bases beginning with a phosphorothioate linkage. For example, if there are five bases in a sequence denoted as PS/DE, they include three phosphorothioate (PS) bonds and two phosphodiester (DE) bonds.
Each oligomer was mixed with its complementary synthetic RNA target in a 1:1 molar ratio in a buffer system consisting of 20 mM sodium phosphate buffer (pH 7.2), 100 mM NaCl, 0.03% potassium sarkosylate and 0.1 mM EDTA; total strand concentration=2.4 micromolar. The resulting solutions were heated to 70° C. and slowly cooled to 4° C. over a time period of approximately 4-6 hours. […] The binding constants at 37° C.

[2] = Stability to nuclease digestion in 10% fetal calf serum (Example 38); assay type: in vitro ADME; details: pH 8.0, 37° C., 50% full length oligomer digested, first three time points
Protocol: Multiple samples of each chimeric oligomer were prepared in 1.5 mL polypropylene microcentrifuge tubes on ice. Each sample contained oligomer (0.1 OD260 unit), 10% fetal calf serum (FCS, Gemini Bioproducts, Calabasas, Calif.), 20 mM HEPES (pH 8.0), 0.2% paramethylsulfonyl fluoride (PMSF), 175 mM KCl, 0.1 mM dithiothreitol, 0.1 mM EDTA, 2 mM MgCl2 and 4% glycerol--total volume=100 μL. The samples were incubated at 37° C. for specified time periods and then diluted with 0.4% NP-40/acetonitrile (35 μL), quickly frozen on dry ice and stored at -20° C. Samples were then individually thawed, diluted with water (635 μL) and analyzed immediately by reversed-phase HPLC according to the method given in the preceding example (except that a 2 mL sample loop was used to load the samples onto the column). Results are shown in tabular format below, and in graphical format in FIG. 2.

S1-endonuclease = assay: Stability to nuclease digestion by S1-endonuclease (Example 37); assay type: in vitro ADME; details: S1-endonuclease 0.5 units/mL, pH 5.0, 37° C.; 50% full length oligomer digested
Protocol: The following oligomers were tested for nuclease stability in the presence of S1-endonuclease.
S1-endonuclease was purchased from Promega Corp. (Catalog #E576B, Madison, Wis.). Aliquots of each chimeric oligomer (0.05-0.075 OD260 units) were individually added to polypropylene microcentrifuge tubes containing S1-endonuclease (0.5 units/mL) in 30 mM sodium acetate (pH 5.0), 50 mM NaCl, 1.0 mM zinc acetate and 5% glycerol; total reaction volume=10 μL. These tubes were incubated at 37° C. for specified time periods, quickly frozen in dry ice and then stored in a freezer at -20° C. […] Column=Vydac Protein C4 (catalog #214TP54, 4.9 mm i.d.×250 mm long). Buffer A=50 mM triethylammonium acetate (pH 7)/1% acetonitrile; Buffer B=50 mM triethylammonium acetate (pH 7)/50% acetonitrile. […] The samples were diluted with water (50 μL) and injected onto the column using a 100 μL sample loop. Peaks corresponding to full length oligomer and its degradation products were detected by monitoring at 260 nm. The amount of degradation occurring in each reaction was determined by measuring the reduction in peak area for the full-length oligomer (identified by comparison to an external control and/or by coinjecting undigested oligomer as an internal control). The data is shown in tabular format below, and in graphic format in FIG. 1.

[3] = test system: complementary RNA targets; assay: Tm of Rp-enriched versus racemic methylphosphonate oligomers with RNA (Example 33); assay type: binding; details: for Tm: 2.4 μM total strand concentration, pH 7.2, 100 mM sodium chloride
[4] = test system: endogenous eukaryotic RNaseH derived from HeLa cell nuclear extracts; assay type: biochemical; details: 10 μM oligomer, 1 μM RNA target

Substance | Tm [1] | KA (37° C.) [1] | Tm [3] | also measured
2687-1: 5'-GTCTTCCA(TGCAT)GTTGTCC-3' [75% MP(Rp)][DE][75% MP(Rp)] [Oligomer 2687-1] | 52.8 °C | 2.6 × 10^9 |  | 
2681-1: 5'-GTCTTCCA(TGCAT)GTTGTCC-3' [MP][PS/DE][MP] [Oligomer 2681-1] | 44.1 °C | 2.1 × 10^7 |  | Half-Life for Degradation [2]: 8.1 h; Half-Life for Degradation (S1-endonuclease): 12.2 h
1634-1: 5'-TAG-CTT-CCT-TAG-CTC-CTG-3', racemic methylphosphonate (TAGCTTCCTTAGCTCCTG; all [mp], sugars by position and methylation of C not given here) [Oligomer 1634-1] |  |  | 38.2 °C | 
2624-1: 3'-CTGTTG TACGT ACCTTCTG-5' Racemic MP (CTGTTGTACGTACCTTCTG; racemic methylphosphonate, chemistry not fully specified; listed 3' to 5') [Oligomer 2624-1] |  |  | 38.6 °C | 
3257-1: 5'-GTCTTC(CATGCAT)GTTGTCC-3' [MP(Rp)/DE][PS/DE][MP(Rp)/DE] [Oligomer 3257-1] | 60.9 °C | 2.1 × 10^14 |  | 
2688-1: 5'-ATG-GTG-TCT-GTT-TGA-GGT-T-3', racemic methylphosphonate (ATGGTGTCTGTTTGAGGTT; all [mp], sugars by position and methylation of C not given here) [Oligomer 2688-1] |  |  | 40.0 °C | 
2253-1: 5'-AGA-GAG-AGA-GAG-AG-T-3', racemic methylphosphonate (AGAGAGAGAGAGAGT; all [mp], sugars by position not given here) [Oligomer 2253-1] |  |  | 48.9 °C | 
3214-1: 5'-GTCTTCCA(TGCAT)GTTGTCC-3' [MP(Rp)/DE][PS/DE][MP(Rp)/DE] [Oligomer 3214-1] | 61.0 °C | 2.3 × 10^14 |  | Half-Life for Degradation [2]: 4.3 h; RNaseH Cleavage after 2 Hrs. at 37° C. [4]: 38.0%; Half-Life for Degradation (S1-endonuclease): 5.0 h
2517-1: 5'-GTG-TGT-GTG-TGT-GTG-TA-3'-3', racemic methylphosphonate (GTGTGTGTGTGTGTGTA; all [mp], sugars by position not given here; further chemistry not fully specified) [Oligomer 2517-1] |  |  | 41.0 °C | 
2571-1: 5'-(G*T)(C*T)(T*C)(C*A)(T*G)(C*A)(T*G)(T*T)(G*T)-C-3', 75% MP(Rp) [Oligomer 2571-1] |  |  | 46.3 °C | ΔTm ([3]; Rp-enriched versus racemic oligomer of the pair): 8.2 °C
3256-1: 5'-GTCTTCCA(TGCAT)GTTGTCC-3' [MP(Rp)/DE][PS][MP(Rp)/DE] [Oligomer 3256-1] | 60.1 °C | 5.5 × 10^13 |  | Half-Life for Degradation [2]: 16.2 h; RNaseH Cleavage after 2 Hrs. at 37° C. [4]: 18.7%; Half-Life for Degradation (S1-endonuclease): 12.5 h
